Laboratory results: ChEMBL document CHEMBL1127045 (J Med Chem, 1993)

Columns and labels:
[1] = biological target: 5-HT2A receptor (Rattus norvegicus); test: Binding affinity against 5-hydroxytryptamine 2 receptor from rat cortical synaptosomal membrane using radioligand [3H]ketanserin.
D(2) dopamine receptor = D(2) dopamine receptor (Rattus norvegicus, UniProt P61169); test: Binding affinity against dopamine receptor D2 from rat corpus striatum by using radioligand [3H]sulpiride
[2] = biological target: Serotonin 2 (5-HT2) receptor (Mus musculus) (UniProt Q02152+P34968+P35363); test: Effective dose through peroral route for in vivo inhibition against 5-hydroxytryptamine 2 receptor in male CF-1 mice by using radioligand [3H]ketanserin; type: organism-based
Sequence of Serotonin 2 (5-HT2) receptor (Mus musculus) (P34968 whole entry, looked up): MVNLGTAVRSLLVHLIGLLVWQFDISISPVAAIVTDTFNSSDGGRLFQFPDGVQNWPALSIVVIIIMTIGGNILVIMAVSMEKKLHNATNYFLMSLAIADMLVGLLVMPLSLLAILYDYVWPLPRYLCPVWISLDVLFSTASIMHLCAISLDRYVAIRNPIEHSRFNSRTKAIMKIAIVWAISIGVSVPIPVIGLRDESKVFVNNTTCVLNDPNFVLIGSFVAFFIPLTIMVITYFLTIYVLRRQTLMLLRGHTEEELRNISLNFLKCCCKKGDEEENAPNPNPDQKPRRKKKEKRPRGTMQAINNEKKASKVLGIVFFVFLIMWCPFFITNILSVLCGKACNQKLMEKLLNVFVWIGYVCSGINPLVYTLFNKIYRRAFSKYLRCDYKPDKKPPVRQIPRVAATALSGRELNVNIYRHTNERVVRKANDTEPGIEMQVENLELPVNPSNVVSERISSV
Sequence of Serotonin 2 (5-HT2) receptor (Mus musculus) (P35363 whole entry, looked up): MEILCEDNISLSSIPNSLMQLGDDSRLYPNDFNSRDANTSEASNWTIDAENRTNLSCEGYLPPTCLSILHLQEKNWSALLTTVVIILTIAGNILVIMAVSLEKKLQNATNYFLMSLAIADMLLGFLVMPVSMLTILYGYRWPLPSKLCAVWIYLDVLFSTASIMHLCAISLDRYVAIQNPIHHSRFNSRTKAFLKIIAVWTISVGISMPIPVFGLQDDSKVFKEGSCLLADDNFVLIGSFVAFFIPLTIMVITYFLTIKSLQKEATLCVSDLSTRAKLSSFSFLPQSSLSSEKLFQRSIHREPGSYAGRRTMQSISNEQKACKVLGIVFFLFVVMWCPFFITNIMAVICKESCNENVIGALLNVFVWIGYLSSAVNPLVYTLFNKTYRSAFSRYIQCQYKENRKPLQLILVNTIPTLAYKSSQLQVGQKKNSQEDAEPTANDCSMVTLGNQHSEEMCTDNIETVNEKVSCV
Sequence of Serotonin 2 (5-HT2) receptor (Mus musculus) (Q02152 whole entry, looked up): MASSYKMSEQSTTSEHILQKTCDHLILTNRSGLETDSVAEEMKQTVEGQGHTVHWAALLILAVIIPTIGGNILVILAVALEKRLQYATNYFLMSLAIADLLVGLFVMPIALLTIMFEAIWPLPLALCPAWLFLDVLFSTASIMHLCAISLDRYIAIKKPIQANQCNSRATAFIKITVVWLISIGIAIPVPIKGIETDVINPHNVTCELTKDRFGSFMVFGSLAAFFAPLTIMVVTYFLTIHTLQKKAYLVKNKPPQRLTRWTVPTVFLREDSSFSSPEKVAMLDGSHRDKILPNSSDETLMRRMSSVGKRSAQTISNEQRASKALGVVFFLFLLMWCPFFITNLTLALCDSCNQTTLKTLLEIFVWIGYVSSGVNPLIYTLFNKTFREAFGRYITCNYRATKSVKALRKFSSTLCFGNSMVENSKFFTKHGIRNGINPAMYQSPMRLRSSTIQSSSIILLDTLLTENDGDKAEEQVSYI

Sequence of D(2) dopamine receptor (P61169 whole entry): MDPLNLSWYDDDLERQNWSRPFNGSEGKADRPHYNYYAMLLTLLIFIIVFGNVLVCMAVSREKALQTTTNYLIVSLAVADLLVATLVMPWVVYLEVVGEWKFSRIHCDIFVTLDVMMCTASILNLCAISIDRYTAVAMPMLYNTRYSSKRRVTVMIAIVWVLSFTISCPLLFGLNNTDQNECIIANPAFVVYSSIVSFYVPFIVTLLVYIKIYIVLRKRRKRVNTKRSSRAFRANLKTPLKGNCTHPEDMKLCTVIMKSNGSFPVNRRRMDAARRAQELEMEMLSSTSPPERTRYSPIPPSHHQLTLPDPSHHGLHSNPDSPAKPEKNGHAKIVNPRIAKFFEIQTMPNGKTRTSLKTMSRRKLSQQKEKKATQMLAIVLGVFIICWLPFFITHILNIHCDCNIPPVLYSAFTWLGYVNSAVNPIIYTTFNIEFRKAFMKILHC

Row | SMILES | Ki [1] | Ki (D(2) dopamine receptor) | ED50 [2] | inhibition [2]
1 | c1ccc2sc(CCCCN3C4CCC3c3c([nH]c5ccccc35)C4)cc2c1 (stereo unspecified) | 0.61 µM | 0.416 µM | – | –
2 | O=C1c2ccccc2C(=O)N1CCCCN1C2CCC1c1c([nH]c3ccccc13)C2 (stereo unspecified) | 0.879 µM | 2.63 µM | – | –
3 | c1ccc2c(CCCCN3C4CCC3c3c([nH]c5ccccc35)C4)c[nH]c2c1 (stereo unspecified) | 0.329 µM | 0.853 µM | – | –
4 | O=C(CCCN1C2CCC1c1c([nH]c3ccccc13)C2)c1cccs1 (stereo unspecified) | – | 0.55 µM | – | –
5 | O=C(CCCCN1C2CCCC1c1c([nH]c3ccccc13)C2)c1ccccc1 (stereo unspecified) | 0.0209 µM | 0.0435 µM | – | –
6 | O=S1(=O)c2cccc3cccc(c23)N1CCCCN1C2CCC1c1c([nH]c3ccc(F)cc13)C2 (stereo unspecified) | 1.245 µM | 1.01 µM | – | –
7 | Cn1c2c(c3ccccc31)C1CCC(C2)N1CCCC(=O)c1ccc(F)cc1 (stereo unspecified) | 0.00283 µM | 0.287 µM | – | –
8 | Fc1ccc(CCCCN2C3CCCC2c2c([nH]c4ccccc24)C3)cc1 (stereo unspecified) | 0.0245 µM | 0.973 µM | – | –
9 | O=C(CCCN1C2CCC1c1c([nH]c3ccccc13)C2)c1ccc(F)cc1 (stereo unspecified) | – | 0.275 µM | 20.9 mg/kg | –
10 | O=C(CCCN1C2CCC1c1c([nH]c3ccc(F)cc13)C2)c1ccc(F)cc1 (stereo unspecified) | – | – | 41.1 mg/kg | –
11 | O=C(CCCCN1C2CCCC1c1c([nH]c3ccc(F)cc13)C2)c1ccccc1 (stereo unspecified) | 0.0598 µM | 0.072 µM | – | –
12 | c1ccc2c(CCCN3C4CCC3c3c([nH]c5ccccc35)C4)c[nH]c2c1 (stereo unspecified) | – | 1.16 µM | – | –
13 | c1ccc(CCCCN2C3CCCC2c2c([nH]c4ccccc24)C3)cc1 (stereo unspecified) | 0.103 µM | 0.67 µM | – | –
14 | O=C(CCCN1C2CCCC1c1c([nH]c3ccccc13)C2)c1ccc(F)cc1 (stereo unspecified) | 0.00085 µM | – | 16.3 mg/kg | –
15 | O=C(CCCCN1C2CCC1c1c([nH]c3ccccc13)C2)c1ccc(F)cc1 (stereo unspecified) | – | – | 7.32 mg/kg | –
16 | O=C(CCCCN1C2CCC1c1c([nH]c3ccc(F)cc13)C2)c1ccccc1 (stereo unspecified) | 0.00298 µM | 0.00277 µM | 0.65 mg/kg | –
17 | Fc1ccc(CCCCN2C3CCCC2c2c([nH]c4ccc(F)cc24)C3)cc1 (stereo unspecified) | 0.143 µM | 1.96 µM | – | –
18 | c1ccc2c(c1)ccn2CCCCN1C2CCC1c1c([nH]c3ccccc13)C2 (stereo unspecified) | 0.284 µM | 0.635 µM | – | –
19 | Fc1ccc2c(CCCN3C4CCCC3c3c([nH]c5ccc(F)cc35)C4)noc2c1 (stereo unspecified) | 0.0134 µM | 0.248 µM | – | –
20 | O=C(CCCN1C2CCC1c1c([nH]c3ccccc13)C2)c1ccccc1 (stereo unspecified) | 0.00655 µM | 0.54 µM | – | 12%
21 | O=C(CCCN1C2CCCC1c1c([nH]c3ccc(F)cc13)C2)c1ccc(F)cc1 (stereo unspecified) | – | – | 5.89 mg/kg | –
22 | O=C(CCCN1C2CCC1c1c([nH]c3ccc(F)cc13)C2)c1ccco1 (stereo unspecified) | 0.264 µM | 0.643 µM | – | –
23 | O=C1CC2CCC(C1)N2CCCC(=O)c1ccc(F)cc1 | 0.533 µM | 0.0013 µM | – | –
24 | O=C(CCCN1C2CCC1c1c(n(-c3ccccc3)c3ccccc13)C2)c1ccc(F)cc1 (stereo unspecified) | 0.33 µM | – | – | –
25 | Cc1nc2sccn2c(=O)c1CCN1CCC(=C(c2ccc(F)cc2)c2ccc(F)cc2)CC1 [RITANSERIN] | – | 0.093 µM | 0.14 mg/kg | –
26 | c1ccc2c3c([nH]c2c1)CC1CCC3N1 (stereo unspecified) | – | > 10 µM | – | –
27 | O=C(CCCCN1C2CCC1c1c([nH]c3ccc(F)cc13)C2)c1ccc(F)cc1 (stereo unspecified) | – | 0.0341 µM | – | –
28 | Fc1ccc2c(CCCCN3C4CCCC3c3c([nH]c5cccc(F)c35)C4)noc2c1 (stereo unspecified) | 0.133 µM | 0.131 µM | – | –
29 | Fc1ccc2[nH]c3c(c2c1)C1CCCC(C3)N1CCCCc1ccccc1 (stereo unspecified) | 0.172 µM | – | – | –
